Experimental data reported in patent publication US6455587B1 (priority 2000, dated 2002).

Target: T1, recombinant HIV-1 protease (Human immunodeficiency virus type 1 group M subtype B, UniProt P04585)
T1 construct: recombinant HIV-1 protease (final concentration 2.18 nM) purchased from Bachem Bioscience; purchased Bachem Bioscience
Assay: Enzymatic fluorometric (FRET) assay for determining the inhibition constant (Ki) against HIV protease
Type: biochemical
Conditions: Ki (nM)
Outline: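 FRET substrate (EDANS/DABCYL) cleavage followed at 31° C., ex 340/em 485 nm. Initial velocity recorded over 4 min, then inhibitor added at several concentrations and rate read another 4 min. Ki derived from v0 and vi via Henderson equation using [S] and Km.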

CC(C)(C)OC(=O)N[C@@H](CCCCNC(=O)OCC1c2ccccc2-c2ccccc21)C(=O)O [Compound 138] was tested, and the Ki was over 200 nM.

Same assay, conditions: Ki (nM), fluorometric FRET assay, recombinant HIV-1 protease, pH 4.7, 31° C.

First: CC(C)CN([C@@H](CCCCNC(=O)C=Cc1cccc([N+](=O)[O-])c1)C(=O)O)S(=O)(=O)c1ccc([N+](=O)[O-])cc1 [Compound 108, Nα-Isobutyl-Nα-(4-nitrobenzenesulfonyl)-Nε-(3-nitrocinnamoyl)-L-lysine]
Second: CC(C)CN([C@@H](CCCCNC(=O)C=Cc1ccc([N+](=O)[O-])cc1)C(=O)O)S(=O)(=O)c1ccc([N+](=O)[O-])cc1 [Compound 111, Nα-Isobutyl-Nα-(4-nitrobenzenesulfonyl)-Nε-(4-nitrocinnamoyl)-L-lysine]
The Ki of the first is higher: over 300 nM for the first, 34.4 nM for the second. The second binds more tightly here.

CC(C)CN([C@@H](CCCCNC(=O)C=Cc1ccccc1[N+](=O)[O-])C(=O)O)S(=O)(=O)c1ccc([N+](=O)[O-])cc1 [Compound 109, Nα-Isobutyl-Nα-(4-nitrobenzenesulfonyl)-Nε-(2-nitrocinnamoyl)-L-lysine] and CC(C)CN([C@@H](CCCCNS(=O)(=O)c1ccc([N+](=O)[O-])cc1)C(=O)O)S(=O)(=O)c1ccc([N+](=O)[O-])cc1 [Compound 116, Nα-Isobutyl-Nα,Nε-di-(4-nitrobenzenesulfonyl)-L-lysine] cannot be ordered by Ki: over 300 nM for the first, over 300 nM for the second.

Same assay, conditions: fluorometric FRET assay, recombinant HIV-1 protease, pH 4.7, 31° C.; read-out: Ki

Compared with Cc1ccc(S(=O)(=O)N(CC(C)C)[C@@H](CCCCNC(=O)CCc2ccccc2)C(=O)O)cc1 [Compound 91], CC(C)CN([C@@H](CCCCNC(=O)CCc1ccccc1)C(=O)O)S(=O)(=O)c1ccc(N)cc1 [Compound 158, Nα-Isobutyl-Nα-(4-aminobenzenesulfonyl)-Nε-dihydrocinnamoyl-L-lysine] is higher in Ki: 8 nM for the first, over 300 nM for the second.

CC(C)CN([C@@H](CCCCNC(=O)CCc1ccccc1)C(=O)O)S(=O)(=O)c1ccc([N+](=O)[O-])cc1 [Compound 94, Nα-Isobutyl-Nα-(4-nitrobenzenesulfonyl)-Nε-dihydrocinnamoyl-L-lysine] and CC(C)CN([C@@H](CCCCNC(=O)COc1ccccc1)C(=O)O)S(=O)(=O)c1ccc([N+](=O)[O-])cc1 [Compound 160, Nα-Isobutyl-Nα-(4-nitrobenzenesulfonyl)-Nε-phenoxyacetyl-L-lysine] are within 1.5-fold of each other in Ki: 33.9 nM for the first, 24.5 nM for the second.

First: CC(C)CN([C@@H](CCCCNC(=O)CCc1c[nH]c2ccccc12)C(=O)O)S(=O)(=O)c1ccc([N+](=O)[O-])cc1 [Compound 95, Nα-Isobutyl-Nα-(4-nitrobenzenesulfonyl)-Nε-(3-indolepropionyl)-L-lysine]
Second: CC(C)CN([C@@H](CCCCNC(=O)CCc1c[nH]c2ccccc12)C(=O)O)S(=O)(=O)c1ccc(N)cc1 [Compound 98, Nα-Isobutyl-Nα-(4-aminobenzenesulfonyl)-Nε-(3-indolepropionyl)-L-lysine]
The Ki of the first is 3.3-fold higher: 33.4 nM for the first, 10.1 nM for the second. The second binds more tightly here.

First: CC(C)CN([C@@H](CCCCNC(=O)C1c2ccccc2Oc2ccccc21)C(=O)O)S(=O)(=O)c1ccc([N+](=O)[O-])cc1 [Compound 96, Nα-Isobutyl-Nα-(4-nitrobenzenesulfonyl)-Nε-(9-xanthenecarbonyl)-L-lysine]
Second: COc1ccccc1/C=C/C(=O)NCCCC[C@@H](C(=O)O)N(CC(C)C)S(=O)(=O)c1ccc([N+](=O)[O-])cc1 [Compound 161, Nα-Isobutyl-Nα-(4-nitrobenzenesulfonyl)-Nε-(trans-2-methoxycinnamoyl)-L-lysine]
The Ki of the first is lower: 43.9 nM for the first, over 300 nM for the second. The first binds more tightly here.

Going from O=C(NCCCC[C@H](NS(=O)(=O)c1cccc2ccccc12)C(=O)O)OCC1c2ccccc2-c2ccccc21 [Compound 102, Nα-(1-Naphthalenesulfonyl)-Nε-(9-fluorenylmethoxycarbonyl)-L-lysine] to Nc1ccccc1S(=O)(=O)N[C@@H](CCCCNC(=O)OCC1c2ccccc2-c2ccccc21)C(=O)O [Compound 105, Nα-(2-Aminobenzenesulfonyl)-Nε-(9-fluorenylmethoxycarbonyl)-L-lysine], the Ki rises from 2320 nM to 16000 nM (6.9-fold).

O=C(NCCCC[C@H](NS(=O)(=O)c1ccc([N+](=O)[O-])cc1)C(=O)O)OCC1c2ccccc2-c2ccccc21 [Compound 103, Nα-(4-Nitrobenzenesulfonyl)-Nε-(9-fluorenylmethoxycarbonyl)-L-lysine] and Nc1ccc(S(=O)(=O)N[C@@H](CCCCNC(=O)OCC2c3ccccc3-c3ccccc32)C(=O)O)cc1 [Compound 106, Nα-(4-Aminobenzenesulfonyl)-Nε-(9-fluorenylmethoxycarbonyl)-L-lysine] are within 1.5-fold of each other in Ki: 3300 nM for the first, 4490 nM for the second.

COc1ccc(S(=O)(=O)N[C@@H](CCCCNC(=O)OCC2c3ccccc3-c3ccccc32)C(=O)O)cc1 [Compound 104, Nα-(4-Methoxylbenzenesulfonyl)-Nε-(9-fluorenylmethoxycarbonyl)-L-lysine] and O=C(NCCCC[C@H](NS(=O)(=O)c1ccccc1[N+](=O)[O-])C(=O)O)OCC1c2ccccc2-c2ccccc21 [Compound 107, Nα-(2-Nitrobenzenesulfonyl)-Nε-(9-fluorenylmethoxycarbonyl)-L-lysine] are within 1.5-fold of each other in Ki: 3160 nM for the first, 3970 nM for the second.

COc1cccc(C=CC(=O)NCCCC[C@@H](C(=O)O)N(CC(C)C)S(=O)(=O)c2ccc([N+](=O)[O-])cc2)c1OC [Compound 110, Nα-Isobutyl-Nα-(4-nitrobenzenesulfonyl)-Nε-(2,3-dimethoxycinnamoyl)-L-lysine] and COc1ccc(C=CC(=O)NCCCC[C@@H](C(=O)O)N(CC(C)C)S(=O)(=O)c2ccc([N+](=O)[O-])cc2)cc1 [Compound 113, Nα-Isobutyl-Nα-(4-nitrobenzenesulfonyl)-Nε-(4-methoxycinnamoyl)-L-lysine] cannot be ordered by Ki: over 300 nM for the first, over 300 nM for the second.

CC(C)CN([C@@H](CCCCNS(=O)(=O)Cc1ccccc1)C(=O)O)S(=O)(=O)c1ccc([N+](=O)[O-])cc1 [Compound 115, Nα-Isobutyl-Nα-(4-nitrobenzenesulfonyl)-Nε-benzylsulfonyl-L-lysine] and CC(C)CN([C@@H](CCCCNC(=O)CCCc1ccccc1)C(=O)O)S(=O)(=O)c1ccc(N)cc1 [Compound 121, Nα-Isobutyl-Nα-(4-aminobenzenesulfonyl)-Nε-(4-phenylbutanoyl)-L-lysine] cannot be ordered by Ki: over 300 nM for the first, over 300 nM for the second.

CC(C)CN([C@@H](CCCCNC(=O)CCc1cccc(N)c1)C(=O)O)S(=O)(=O)c1ccc(N)cc1 [Compound 118, Nα-Isobutyl-Nα-(4-aminobenzenesulfonyl)-Nε-(3-aminodihydrocinnamoyl)-L-lysine] and COc1cccc(CCC(=O)NCCCC[C@@H](C(=O)O)N(CC(C)C)S(=O)(=O)c2ccc(N)cc2)c1 [Compound 156, Nα-Isobutyl-Nα-(4-aminobenzenesulfonyl)-Nε-(3-methoxydihydrocinnamoyl)-L-lysine] are within 1.5-fold of each other in Ki: 20.5 nM for the first, 16.7 nM for the second.

Going from COc1cccc(CCC(=O)NCCCC[C@@H](C(=O)O)N(CC(C)C)S(=O)(=O)c2ccc(N)cc2)c1OC [Compound 119, Nα-Isobutyl-Nα-(4-aminobenzenesulfonyl)-Nε-(2,3-dimethoxydihydrocinnamoyl)-L-lysine] to COc1ccccc1CCC(=O)NCCCC[C@@H](C(=O)O)N(CC(C)C)S(=O)(=O)c1ccc(N)cc1 [Compound 157, Nα-Isobutyl-Nα-(4-aminobenzenesulfonyl)-Nε-(2-methoxydihydrocinnamoyl)-L-lysine], the Ki rises from 6.2 nM to 18.9 nM (3-fold). The first binds more tightly here.

First: COc1ccc(CCC(=O)NCCCC[C@@H](C(=O)O)N(CC(C)C)S(=O)(=O)c2ccc(N)cc2)cc1 [Compound 120, Nα-Isobutyl-Nα-(4-aminobenzenesulfonyl)-Nε-(4-methoxydihydrocinnamoyl)-L-lysine]
Second: Cc1ccc(S(=O)(=O)N(CC(C)C)[C@@H](CCCCNC(=O)CCc2ccc(O)cc2)C(=O)O)cc1 [Compound 126, Nα-Isobutyl-Nα-(4-methylbenzenesulfonyl)-Nε-(4-hydroxydihydrocinnamoyl)-L-lysine]
The Ki of the first is lower: 12.4 nM for the first, over 300 nM for the second. The first binds more tightly here.

First: CC(C)CN([C@@H](CCCCNC(=O)CCc1ccccc1N)C(=O)O)S(=O)(=O)c1ccc(N)cc1 [Compound 122, Nα-Isobutyl-Nα-(4-aminobenzenesulfonyl)-Nε-(2-aminodihydrocinnamoyl)-L-lysine]
Second: CC(C)CN([C@@H](CCCCNC(=O)CCc1ccc2c(c1)OCO2)C(=O)O)S(=O)(=O)c1ccc(N)cc1 [Compound 155, Nα-Isobutyl-Nα-(4-aminobenzenesulfonyl)-Nε-(3,4-methylenedioxydihydrocinnamoyl)-L-lysine]
The Ki of the first is higher: over 300 nM for the first, 15.7 nM for the second. The second binds more tightly here.

Compared with COC(=O)[C@H](CCCCNC(=O)OCC1c2ccccc2-c2ccccc21)N(CC(C)C)S(=O)(=O)c1ccc(C)cc1 [Compound 123, Nα-Isobutyl-Nα-(4-methylbenzenesulfonyl)-Nε-(9-fluorenylmethoxycarbonyl)-L-lysine Methyl Ester], Cc1ccc(S(=O)(=O)N(CC(C)C)C(CCCCNC(=O)OCC2c3ccccc3-c3ccccc32)C(N)=O)cc1 [Compound 125, (2R,2S)-N-Isobutyl-N-(4-methylbenzenesulfonylamino)-6-(9-fluorenylmethoxycarboxylamino)-1-hexanamide] is lower in Ki: over 300 nM for the first, 107 nM for the second.

Cc1ccc(S(=O)(=O)N(CC(C)C)[C@@H](CO)CCCCNC(=O)OCC2c3ccccc3-c3ccccc32)cc1 [Compound 124, (2R)-N-Isobutyl-N-(4-methylbenzenesulfonylamino)-6-(9-fluorenylmethoxycarboxylamino)-1-hexanol] and Cc1ccc(S(=O)(=O)N(CC(C)C)C(CCCCNC(=O)OCC2c3ccccc3-c3ccccc32)C(=O)NO)cc1 [Compound 141, (2R,2S)-N-Isobutyl-N-(4-methylbenzenesulfonylamino)-6-(9-fluorenylmethoxycarboxylamino)-1-hydroxylhexamide] are within 1.5-fold of each other in Ki: 208 nM for the first, 245 nM for the second.

CC(C)(C)OC(=O)N[C@@H](CCCNC(=O)OCc1ccccc1)C(=O)O [Compound 137] and CC(C)(C)OC(=O)N[C@@H](CCCCNS(=O)(=O)c1ccc(Br)cc1)C(=O)O [Compound 143] cannot be ordered by Ki: over 200000 nM for the first, 660000 nM for the second.

Cc1ccc(S(=O)(=O)NCCC[C@H](NC(=O)OCC2c3ccccc3-c3ccccc32)C(=O)O)cc1 [Compound 149, Nδ-(4-Methylbenzenesulfonyl)-Nα-(9-fluorenylmethoxycarbonyl)-L-ornithine] showed a Ki of 10100 nM.
